According to ChEMBL document CHEMBL1201862, “PubChem BioAssay data set” (2004):
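Values below derive from 48-hour exposures of cells grown in 96-well plates, with endpoints linearly interpolated between the two concentrations bracketing the appropriate inhibition level. GI50 marks 50% less growth.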 Active and inactive are the calls of the source. No stated cut-off is given here; in the data, active = GI50 up to about 1.1 µM and inactive = higher.

How the values were obtained:
Experiment in all cases: DTP human tumour cell line panel, 48 h
SNB-19 = tested on: SNB-19
A549 = tested on: A549
K562 = tested on: K562
HCT-15 = tested on: HCT-15
XF498 = tested on: XF498
CCRF-CEM = tested on: CCRF-CEM
NCI/ADR-RES = tested on: NCI/ADR-RES
IGROV-1 = tested on: IGROV-1
KM12 = tested on: KM12
DU-145 = tested on: DU-145
DMS-273 = tested on: DMS-273
HOP-62 = tested on: HOP-62
UO-31 = tested on: UO-31
HCC 2998 = tested on: HCC 2998
OVCAR-8 = tested on: OVCAR-8
SNB-75 = tested on: SNB-75
OVCAR-3 = tested on: OVCAR-3
MDA-MB-231 = tested on: MDA-MB-231
HOP-18 = tested on: HOP-18
HOP-92 = tested on: HOP-92
LOX IMVI = tested on: LOX IMVI
HL-60 = tested on: HL-60
MDA-N = tested on: MDA-N
COLO 205 = tested on: COLO 205
SR = tested on: SR
ACHN = tested on: ACHN
LXFL 529 = tested on: LXFL 529
SK-OV-3 = tested on: SK-OV-3
UACC-62 = tested on: UACC-62
RXF 393 = tested on: RXF 393
RPMI-8226 = tested on: RPMI-8226
SK-MEL-2 = tested on: SK-MEL-2
786-0 = tested on: 786-0
KM-20L2 = tested on: KM-20L2
SN12C = tested on: SN12C
Hs-578T = tested on: Hs-578T
SF-295 = tested on: SF-295
MDA-MB-435 = tested on: MDA-MB-435
MCF7 = tested on: MCF7
SF-268 = tested on: SF-268
TK-10 = tested on: TK-10
UACC-257 = tested on: UACC-257
A498 = tested on: A498
NCI-H226 = tested on: NCI-H226
MOLT-4 = tested on: MOLT-4
M19-MEL = tested on: M19-MEL
M14 = tested on: M14
OVCAR-5 = tested on: OVCAR-5
SK-MEL-5 = tested on: SK-MEL-5
SF-539 = tested on: SF-539
EKVX = tested on: EKVX
BT-549 = tested on: BT-549
NCI-H522 = tested on: NCI-H522
NCI-H23 = tested on: NCI-H23
SW-620 = tested on: SW-620
RXF 631 = tested on: RXF 631
CAKI-1 = tested on: CAKI-1
SNB-78 = tested on: SNB-78
NCI-H460 = tested on: NCI-H460
HCT-116 = tested on: HCT-116
PC-3 = tested on: PC-3
DMS-114 = tested on: DMS-114
DLD-1 = tested on: DLD-1
U-251 = tested on: U-251
HT-29 = tested on: HT-29
OVCAR-4 = tested on: OVCAR-4
SK-MEL-28 = tested on: SK-MEL-28
Malme-3M = tested on: Malme-3M

## CCCC(O)[C@@]1(CC)CC(C)C(O)(C2(C)C[C@H](C)[C@@H](C(CC)C(=O)C(C)[C@@H](O)[C@H](C)C3OC(O)(C(CC)C(=O)O)[C@@H](C)C(O)C3CC)O2)O1 (stereo partly drawn)
SNB-19
  GI50: 279 nM (active)
A549
  GI50: 123 nM (active)
K562
  GI50: 95.5 nM (active)
HCT-15
  GI50: 1160 nM
XF498
  GI50: 1190 nM (inactive)
CCRF-CEM
  GI50: 32.4 nM (active)
NCI/ADR-RES
  GI50: 79.2 nM (active)
IGROV-1
  GI50: 1240 nM (inactive)
KM12
  GI50: 451 nM (active)
DU-145
  GI50: 88.5 nM (active)
DMS-273
  GI50: 290 nM (active)
HOP-62
  GI50: 369 nM (active)
UO-31
  GI50: 1010 nM (active)
HCC 2998
  GI50: 89.7 nM (active)
OVCAR-8
  GI50: 444 nM (active)
SNB-75
  GI50: 61.1 nM (active)
OVCAR-3
  GI50: 73.3 nM (active)
MDA-MB-231
  GI50: 492 nM (active)
HOP-18
  GI50: 8590 nM (inactive)
HOP-92
  GI50: 300 nM (active)
LOX IMVI
  GI50: 190 nM (active)
HL-60
  GI50: 22.8 nM (active)
MDA-N
  GI50: 414 nM (active)
COLO 205
  GI50: 123 nM (active)
SR
  GI50: < 10 nM (active)
ACHN
  GI50: 521 nM (active)
LXFL 529
  GI50: 594 nM (active)
SK-OV-3
  GI50: 2150 nM (inactive)
UACC-62
  GI50: 923 nM (active)
RXF 393
  GI50: 86.3 nM (active)
RPMI-8226
  GI50: 98.9 nM (active)
SK-MEL-2
  GI50: 531 nM (active)
786-0
  GI50: 414 nM (active)
KM-20L2
  GI50: 276 nM (active)
SN12C
  GI50: 120 nM (active)
Hs-578T
  GI50: 267 nM (active)
SF-295
  GI50: 753 nM (active)
MDA-MB-435
  GI50: 151 nM (active)
MCF7
  GI50: 461 nM (active)
SF-268
  GI50: 284 nM (active)
TK-10
  GI50: 527 nM (active)
UACC-257
  GI50: 138 nM (active)
A498
  GI50: 412 nM (active)
NCI-H226
  GI50: 1100 nM (active)
MOLT-4
  GI50: 449 nM (active)
M19-MEL
  GI50: 643 nM (active)
M14
  GI50: 557 nM (active)
OVCAR-5
  GI50: 1510 nM (inactive)
SK-MEL-5
  GI50: 219 nM (active)
SF-539
  GI50: 56 nM (active)
EKVX
  GI50: 395 nM (active)
BT-549
  GI50: 51.2 nM (active)
NCI-H522
  GI50: 21.1 nM (active)
NCI-H23
  GI50: 129 nM (active)
SW-620
  GI50: 776 nM (active)
RXF 631
  GI50: < 33.3 nM (active)
CAKI-1
  GI50: 486 nM (active)
SNB-78
  GI50: 2760 nM (inactive)
NCI-H460
  GI50: 191 nM (active)
HCT-116
  GI50: 187 nM (active)
PC-3
  GI50: 72.3 nM (active)
DMS-114
  GI50: 27.9 nM (active)
DLD-1
  GI50: 841 nM (active)
U-251
  GI50: 184 nM (active)
HT-29
  GI50: 557 nM (active)
OVCAR-4
  GI50: 594 nM (active)
SK-MEL-28
  GI50: 490 nM (active)
Malme-3M
  GI50: 98.2 nM (active)
